Measured values as given in US20190060296A1, “DISCOVERY OF SMALL MOLECULES THAT TARGET THE ANDROGEN RECEPTOR AND USES” (Massachusetts Institute of Technology, priority 2017, published 2019).
pIC50: −log10 of the molar value.

target: T1, AR-v7 (Homo sapiens, UniProt P10275); experiment: dual luciferase reporter assay, stable LNCaP cell line with AR-v7 under DOX control and MMTV-driven firefly luciferase; assay type: cell-based; details: Reporter Assay at 24 hours; dose response starting at 50 μM, serially diluted 1:1; LNCaP cells
T1 construct: expressed in transfected cells
T1 sequence (P10275 1-644 isoform P10275-3): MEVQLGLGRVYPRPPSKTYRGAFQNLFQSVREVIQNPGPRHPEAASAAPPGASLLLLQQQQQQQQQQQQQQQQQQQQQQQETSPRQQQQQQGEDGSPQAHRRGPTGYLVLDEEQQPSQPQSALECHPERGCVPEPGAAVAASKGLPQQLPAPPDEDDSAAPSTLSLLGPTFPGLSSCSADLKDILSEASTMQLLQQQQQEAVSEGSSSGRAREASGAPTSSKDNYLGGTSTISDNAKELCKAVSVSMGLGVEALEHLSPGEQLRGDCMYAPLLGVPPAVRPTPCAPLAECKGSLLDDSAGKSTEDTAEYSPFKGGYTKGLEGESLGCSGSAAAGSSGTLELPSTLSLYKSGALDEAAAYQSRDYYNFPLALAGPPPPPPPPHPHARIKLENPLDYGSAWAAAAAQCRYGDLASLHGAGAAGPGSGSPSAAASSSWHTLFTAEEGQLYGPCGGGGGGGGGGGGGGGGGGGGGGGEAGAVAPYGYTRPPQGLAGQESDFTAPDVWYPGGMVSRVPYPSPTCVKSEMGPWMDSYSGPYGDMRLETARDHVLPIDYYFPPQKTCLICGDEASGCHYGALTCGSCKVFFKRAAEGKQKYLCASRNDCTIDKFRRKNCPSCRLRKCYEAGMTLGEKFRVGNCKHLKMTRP
From the text: CMV-driven Renilla luciferase is also included as a control. The relative luciferase activity is the firefly luciferase activity normalized to the Renilla luciferase activity. A “dual-reporter assay” is conceptually similar to the single reporter assay described above, and can correct for experimental variation (e.g., cell number, transfection efficiency, etc.). In the case of a dual-reporter assay, a “reporter system” is used, where cells are transfected with two plasmids, the first plasmid comprising the regulatory gene of interest and a first reporter, and the second plasmid comprising a constitutive promoter and a second reporter, wherein the second reporter and the first reporter have biologically distinct activities. The ratio of the first reporter activity (e.g., controlled by the regulatory gene of interest) relative to the second reporter activity (e.g., controlled by the constitutive promoter) corrects for experimental variation. […] In certain embodiments, one or more compounds selected from the SMM screen are submitted to a screen comprising a dual-luciferase assay, the dual-luciferase assay further comprising (i) a first vector comprising a first promoter and a first reporter and (ii) a second vector comprising a second promoter and a second reporter. In certain embodiments, the first vector comprises a first promoter and a first reporter, wherein the first promoter is the MMTV promoter and the first reporter is firefly luciferase. Activation of the androgen receptor, or variant thereof, will promote increased expression of the MMTV-driven firefly luciferase. In certain embodiments, the second vector comprises a second promoter and a second reporter, wherein the second promoter is the cytomegalovirus (CMV) promoter and the second reporter is Renilla luciferase. The CMV promoter is constitutively activated, leading to a basal expression level of Renilla luciferase that serves as a control and can be used to normalize the MMTV-driven firefly luciferase expression level. […] In an embodiment, the first luciferase is firefly luciferase. In an embodiment, the second luciferase is Renilla luciferase. […] In certain embodiments, the firefly luciferase is under control of an MMTV promoter that contains one or more androgen response element (ARE). […] In total, 50,000 molecules were screened against the androgen receptor variant AR-v7 (exons 1-3 truncate of AR-FL) using a small molecule microarray (SMM) (see FIG. 1). […] PSA was used as a readout for both AR-v7 and AR activity in the qPCR assay in LNCaP cells. Selected SMM assay positives were administered to cells at two doses (10 and 30 μM) and PSA expression was evaluated using the Single Shot qPCR kit (BioRad) (see FIG. 2).

pIC50	SMILES
4.61	CS(=O)(=O)N1CCC(Oc2cccc(C(=O)NCC[C@@H]3C[C@@H]4C=C[C@H]3C4)c2)CC1 (relative stereo) [KI-ARv-08, N-{2-[(1S*,2S*,4S*)-bicyclo[2.2.1]hept-5-en-2-yl]ethyl}-3-{[1-(methylsulfonyl)-4-piperidinyl]oxy}benzamide]
< 4.30	COc1ccc(N2CCN(C(=O)c3sc4ncnc(NC[C@H]5C[C@@H]6C=C[C@H]5C6)c4c3C)CC2)cc1 (relative stereo) [KI-ARv-09, N-[(1R*,2S*,4R*)-bicyclo[2.2.1]hept-5-en-2-ylmethyl]-6-{[4-(4-methoxyphenyl)-1-piperazinyl]carbonyl}-5-methylthieno[2,3-d]pyrimidin-4-amine]
4.90	Cc1c(C(=O)NCc2ccncc2)sc2ncnc(NC[C@H]3C[C@@H]4C=C[C@H]3C4)c12 (relative stereo) [RO3682, 4-{[(1R*,2S*,4R*)-bicyclo[2.2.1]hept-5-en-2-ylmethyl]amino}-5-methyl-N-(4-pyridinylmethyl)thieno[2,3-d]pyrimidine-6-carboxamide]
4.83	Cc1cc(N2CCC(NCc3cccc(N4CCCC4)c3)CC2)nc(N)n1 [KI-ARv-06, 4-methyl-6-{4-[(3-pyrrolidin-1-ylbenzyl)amino]piperidin-1-yl}pyrimidin-2-amine]

Continued, molecule first:

SMILES	pIC50
O=C(NCC[C@@H]1C[C@@H]2C=C[C@H]1C2)c1cccc(OC2CCN(C(=O)C3CC3)CC2)c1 (relative stereo) [KI-ARv-01, N-{2-[(1S*,2S*,4S*)-bicyclo[2.2.1]hept-5-en-2-yl]ethyl}-3-{[1-(cyclopropylcarbonyl)-4-piperidinyl]oxy}benzamide]	5.27
Fc1ccc(N2CCCN(CC3[C@H]4CNC[C@@H]34)CC2)cc1 (relative stereo) [KI-ARv-04, (1R*,5S*,6r)-6-{[4-(4-fluorophenyl)-1,4-diazepan-1-yl]methyl}-3-azabicyclo[3.1.0]hexane]	4.95
Cc1c(C(=O)N(C)Cc2cccc3ncccc23)sc2ncnc(NCC3C[C@@H]4C=C[C@H]3C4)c12 (stereo partly drawn) [KI-ARv-02, 4-((((1R,4R)-bicyclo[2.2.1]hept-5-en-2-yl)methyl)amino)-N,5-dimethyl-N-(quinolin-5-ylmethyl)thieno[2,3-d]pyrimidine-6-carboxamide]	5.16
CCNc1ncc(-c2cc(-c3cc(C)sc3C)nc(N)c2C#N)cn1 [KI-ARv-05, 2-amino-6-(2,5-dimethyl-3-thienyl)-4-[2-(ethylamino)pyrimidin-5-yl]nicotinonitrile]	4.30
